In publication PMC9832345 (RSC Advances, 2023):

Tested on: third instar larvae of Spodoptera litura
Assay: Leaf-dip larvicidal assay
Assay type: in vivo
Details: for Eating area (%): 96 h

Row | Structure (SMILES) | Eating area (%) (6.25 ppm) | Eating area (%) (12.5 ppm) | eating area (concentration not given)
1 | CNC(=O)c1cc(Cl)cc(C)c1NC(=O)c1cc(Br)nn1-c1ncccc1Cl [Chlorantraniliprole, chlorantraniliprole] | 0–5% | 0–5% | 0–5%
2 | Cc1cc(Cl)cc(S(C)(=O)=O)c1NC(=O)c1cc(Br)nn1-c1ncccc1Cl [Compound 8] | 0–5% | 0–5% | 
